The values below come from ChEMBL document CHEMBL5346934 (J Med Chem, 2023).

For orientation: EC90 means the concentration needed for an effect of 90%. The term IC50 denotes the concentration at which inhibition is half-maximal. By EC50 is commonly meant the concentration giving half of the maximal effect. Broadly, the CC50 is the concentration giving 50% cytotoxicity.

Series [1] has as its system Vaccinia virus. In words: Antiviral activity against Vaccinia virus infected in African green monkey BSC-1 cells incubated for 24 hrs by microscopic analysis. In kind it is functional. The conditions noted are these: Orthopoxvirus vaccinia.
Series [2] has as its system Vaccinia virus. Put plainly: Antiviral activity against Vaccinia virus infected in human HFF cells. The class given is functional, organism-based. As to conditions: Orthopoxvirus vaccinia.
The test system of series [3] is Vaccinia virus. Put plainly: Antiviral activity against Vaccinia virus infected in African green monkey Vero cells. The class given is functional, organism-based. As to conditions: Orthopoxvirus vaccinia.
The subject of series [4] is Variola virus. In words: Antiviral activity against Variola virus 7124 infected in monkey LLC-MK2 cells. In kind it is functional, organism-based. As to conditions: Variola virus, 7124, LLC-MK2.
Series [5] deals with Cowpox virus. In words: Antiviral activity against Cowpox virus infected in Vero cells measured after 4 days by colorimetric assay. As to conditions: 96 h. In kind it is functional, organism-based.
In series [6] the test system is Vaccinia virus. In words: Antiviral activity against Vaccinia virus infected in African green monkey Vero cells incubated for 24 hrs. The class given is functional, organism-based. The conditions noted are these: Orthopoxvirus vaccinia.
In series [7] the test system is Vaccinia virus. In words: Antiviral activity against Vaccinia virus IHD-J infected in BSC40 cells assessed as reduction in plaque formation measured after 72 hrs by crystal violet staining based analysis. In kind it is functional, organism-based. The conditions noted are these: Orthopoxvirus vaccinia, BSC-40, 72 h.
In series [8] the test system is Vaccinia virus. Put plainly: Antiviral activity against Vaccinia virus infected in monkey BSC40 cells assessed as reduction in virus-induced cytopathic effect. The class given is functional, organism-based. As to conditions: Orthopoxvirus vaccinia, BSC-40. A general note: Damage to the host cells serves as the signal in cytopathic effect assays.
Series [9] deals with Cowpox virus. In words: Antiviral activity against Cowpox virus Brighton infected in Vero cells measured after 4 days by colorimetric assay. The class given is functional, organism-based. The conditions noted are these: 96 h.
Series [10] deals with Monkeypox virus. Put plainly: Antiviral activity against Monkeypox virus Zr-599 infected in African green monkey Vero E6 cells assessed as reduction in plaque formation measured after 72 hrs by microscopic analysis. The class given is functional, organism-based. The conditions noted are these: Zr-599, Vero C1008, 72 h.
Series [11] in a line: Cytotoxicity against African green monkey VERO cells assessed as inhibition of cell growth incubated for 24 hrs by MTT assay. The class given is toxicity, cell-based. The conditions noted are these: chlorocebus sabaeus. (In general: Tetrazolium assays rely on reduction of a dye to a coloured formazan, in cell work by metabolically active cells.)
The test system of series [12] is Variola virus. In words: Antiviral activity against Variola virus 7124 infected in African green monkey BSC-1 cells. The class given is functional, organism-based. As to conditions: Variola virus, 7124, BSC-1.
For series [13], the system named is Vaccinia virus. Put plainly: Antiviral activity against Vaccinia virus infected in African green monkey BSC-1 cells. In kind it is functional, organism-based, Orthopoxvirus vaccinia. The conditions noted are these: Orthopoxvirus vaccinia, BSC-1.
Series [14] relates to Vaccinia virus. In words: Antiviral activity against Vaccinia virus VG9 infected in African green monkey BSC-1 cells. As to conditions: Orthopoxvirus vaccinia, VG9, BSC-1. In kind it is functional, organism-based, Orthopoxvirus vaccinia.
Series [15] has as its system Cowpox virus. In words: Antiviral activity against Cowpox virus infected in African green monkey BSC-1 cells. The class given is functional, organism-based.
For series [16], the system named is Monkeypox virus. Put plainly: Antiviral activity against Monkeypox virus infected in African green monkey BSC-1 cells. The class given is functional, organism-based.
In a further series the test system is Ectromelia virus. Put plainly: Antiviral activity against ectromelia virus K-1 infected in Vero cells measured after 4 days by colorimetric assay. The class given is functional, organism-based. The conditions noted are these: K-1, Vero, 96 h.
The test system of series [17] is Monkeypox virus. Put plainly: Antiviral activity against Monkeypox virus V79-1-005 infected in Vero cells measured after 4 days by colorimetric assay. In kind it is functional, organism-based. The conditions noted are these: V79-1-005, Vero, 96 h.
Series [18] concerns Vaccinia virus. Put plainly: Antiviral activity against Vaccinia virus infected in Vero cells measured after 4 days by colorimetric assay. The class given is functional, organism-based. As to conditions: Orthopoxvirus vaccinia, 96 h.
In series [19] the test system is Vaccinia virus. In words: Antiviral activity against Vaccinia virus infected in human HFF cells measured after 4 days by colorimetric assay. The class given is functional, organism-based. The conditions noted are these: Orthopoxvirus vaccinia, 96 h.
Series [20] has as its system Vaccinia virus. Put plainly: Antiviral activity against Vaccinia virus infected in African green monkey Vero cells assessed as reduction virus induced cytopathic effect incubated for 24 hrs by MTT assay. The class given is functional, organism-based. As to conditions: Orthopoxvirus vaccinia.
Series [21] deals with Vaccinia virus. In words: Antiviral activity against Vaccinia virus Copenhagen infected in African green monkey Vero cells. The conditions noted are these: Orthopoxvirus vaccinia. The class given is functional, organism-based.
The test system of series [22] is Cowpox virus. In words: Antiviral activity against Cowpox virus Grishak infected in African green monkey Vero cells. In kind it is functional, organism-based.
Series [23] can be described thus: Inhibition of D4 receptor (unknown origin). More on the design: species or system Homo sapiens.
Series [24] relates to Vaccinia virus. Put plainly: Antiviral activity against Vaccinia virus GFP infected in green monkey CV-1 cells assessed as reduction in plaque formation measured after 2.5 days by microscopic analysis. The class given is functional, organism-based. As to conditions: Orthopoxvirus vaccinia, CV-1, 60 h.
The subject of series [25] is Vaccinia virus. Put plainly: Antiviral activity against Vaccinia virus GFP infected in green […] cells assessed as reduction in plaque formation measured after 2.5 days by microscopic analysis. The class given is functional, organism-based. As to conditions: Orthopoxvirus vaccinia, HT-1080, 60 h.
The test system of series [26] is Vaccinia virus. Put plainly: Antiviral activity against Vaccinia virus infected in human HFF cells assessed as reduction in plaque formation measured after 7 days by colorimetric assay. The class given is functional, organism-based. The conditions noted are these: Orthopoxvirus vaccinia, 168 h.
The test system of the next series is Human alphaherpesvirus 2. In words: Antiviral activity against Herpes simplex virus 2. In kind it is functional, organism-based.
The test system of series [27] is Vaccinia virus. In words: Antiviral activity against Vaccinia virus Copenhagen infected in human HFF cells assessed as assessed as reduction in virus-induced cytopathic effect incubated for 7 days by microscopic analysis. In kind it is functional, organism-based. The conditions noted are these: Orthopoxvirus vaccinia, 168 h.
For series [28], the system named is Cowpox virus. Put plainly: Antiviral activity against Cowpox virus Brighton infected in human HFF cells assessed as assessed as reduction in virus-induced cytopathic effect incubated for 7 days by microscopic analysis. In kind it is functional, organism-based. As to conditions: 168 h.
Series [29] deals with Vaccinia virus. In words: Antiviral activity against Vaccinia virus Copenhagen infected in human HFF cells assessed as reduction in viral replication measured after 3 days. The class given is functional, organism-based. As to conditions: Orthopoxvirus vaccinia, 72 h.
Series [30] relates to Vaccinia virus. In words: Antiviral activity against Cowpox virus Brighton infected in human HFF cells assessed as reduction in viral replication measured after 3 days. In kind it is functional, organism-based. As to conditions: Orthopoxvirus vaccinia, 72 h.

Converted amounts (≈) assume the structure as drawn.

The compound `CCCCCCCCNCCC[C@@H](C)[C@H]1CC[C@H]2[C@@H]3[C@H](OCCCN)C[C@@H]4C[C@H](OCCCN)CC[C@]4(C)[C@H]3C[C@H](OCCCN)[C@]12C` returned a concentration for an effect of 90% (EC90) in the series on Vaccinia virus [1] of 9.15 µM.

With `CO[C@H]1/C=C/O[C@@]2(C)Oc3c(C)c(O)c4c(O)c(c(/C=N/N5CCN(C)CC5)c(O)c4c3C2=O)NC(=O)/C(C)=C\C=C\[C@H](C)[C@H](O)[C@@H](C)[C@@H](O)[C@@H](C)[C@H](OC(C)=O)[C@@H]1C` [RIFAMPIN], in the series with Vaccinia virus [2], the 50% inhibitory concentration (IC50) is about 100 µg/mL.

Turning to `CC1(C)[C@@H]2CC[C@@]1(C)[C@H](NC(=O)CCN1CCOCC1)C2`, half-maximal inhibition in the series on Vaccinia virus [3] (IC50) required 7.47 µM.

Compound `Nc1nc(=O)n([C@@H]2C=C(CO)[C@@H](O)[C@H]2O)cc1F` gave a half-maximal effective concentration (EC50) in the series with Variola virus [4] of 0.51 µM.

As to `CC(=O)OCC(COC(C)=O)OCn1cnc2c(N)ncnc21`, the half-maximal effective concentration (EC50) with Cowpox virus [5] was determined as 2 µM.

In the series on Vaccinia virus [6], `CCc1ccc(S(=O)(=O)c2ccc(Cl)cc2)cc1` registered an EC50 of 18.6 µM.

For the compound `CCC(=O)N1CC(=O)Nc2ccc(Br)cc2C1c1ccccc1` (configuration not stated), in the series with Vaccinia virus [7], the EC50 was found to be 3 µM.

For the compound `COc1ccc(CCNC(=O)c2cc3ccccc3cc2O)cc1-c1ccc([N+](=O)[O-])cc1`, the 50% effective concentration (EC50) with Vaccinia virus [8] worked out at 12 µM.

As for `CCCCCCCCCCCCCCCCOCCCOP(=O)(O)CO[C@H](CO)Cn1ccc(N)nc1=O` [BRINCIDOFOVIR], the concentration for a half-maximal effect (EC50) with Cowpox virus [9] came out at 0.6 µM.

With `OC(c1cc(C(F)(F)F)nc2c(C(F)(F)F)cccc12)C1CCCCN1` (configuration not stated) [MEFLOQUINE], in the series with Monkeypox virus [10], the half-maximal effective concentration (EC50) stood at 5.19 µM.

Turning to `CC1(C)[C@@H]2CC[C@@]1(C)/C(=N/Nc1nc(-c3ccc(Br)cc3)cs1)C2`, the CC50 at 24 h in [11] came to 77.1 µM.

In the case of `CC1(C)[C@H]2CC[C@]1(C)[C@H](OC(=O)CCCN1CCOCC1)C2`, the 50% inhibitory concentration (IC50) in the series on Vaccinia virus [3] worked out at 7.95 µM.

With `O=C1c2c(O)ccc(O)c2C(=O)c2c(NCCNCCO)ccc(NCCNCCO)c21` [MITOXANTRONE], the 50% effective concentration (EC50) with Variola virus [12] was 0.25 µM; with Vaccinia virus [13], 0.5 µM; in the series on Vaccinia virus [14] it was 0.7 µM; in the series on Cowpox virus [15] it was 0.25 µM; in the series on Monkeypox virus [16], 0.8 µM.

In turn, `Nc1ncnc2c1ncn2[C@@H]1C=C(CO)[C@@H](O)[C@H]1O` [NEOPLANOCIN A] yielded an EC50 with Variola virus [4] of 0.1 µM.

With `O=C(NNC(=O)C1C2C=CC(C3CC23)C1C(=O)O)c1ccccc1O` (configuration not stated), the figures for the EC50 in the series with Ectromelia virus, with Monkeypox virus [17] and in the series with Vaccinia virus [18] were 0.54 µg/mL (≈ 1.58 µM), 0.153 µg/mL (≈ 0.447 µM) and 0.032 µg/mL (≈ 0.0935 µM), respectively.

`NC(=O)c1cn([C@@H]2O[C@H](CO)[C@@H](O)[C@H]2O)c2ncnc(N)c12` [SANGIVAMYCIN] returned an EC50 in the series on Vaccinia virus [19] of 0.065 µM.

Turning to `CCC(C(=O)Nc1sc(C(N)=O)c(C)c1C(=O)OC)c1ccccc1` (configuration not stated), the results for the concentration giving a half-maximal response (EC50) in the series on Vaccinia virus [20], in the series on Vaccinia virus [21] and with Cowpox virus [22] were 19.7 µM, 18.7 µM and 8.4 µM, respectively. Further, half-maximal inhibition in series [23] (IC50) was put at 13.4 µM.

In the case of `O=[N+]([O-])c1cc(/C=N/c2ccccc2/N=C/c2ccc(O)c(O)c2)ccc1O`, the 50% effective concentration (EC50) was 13.2 µM with Vaccinia virus [24] and 10.9 µM in the series on Vaccinia virus [25].

Take `CC[C@H](CO)Nc1nc(NCc2ccccc2O)c2ncn(C(C)C)c2n1` [OLOMOUCINE II]: in the series with Vaccinia virus [26], the half-maximal effective concentration (EC50) was found to be 3.8 µM.

Take `NC(CSC1(c2ccc(Cl)cc2)c2ccccc2-c2ccccc21)C(=O)O` (configuration not stated): the IC50 in the series with Vaccinia virus [2] worked out at 47.5 µM; in the series with Human alphaherpesvirus 2, 34.8 µM.

For `CC(C)C(=O)OC[C@H]1O[C@@H](n2cc/c(=N\O)[nH]c2=O)[C@H](O)[C@@H]1O` [MOLNUPIRAVIR], in the series with Monkeypox virus [10], the EC50 came out at 1.35 µM.

On to `O=S(=O)(c1ccc(C2=CSC(Nc3ccc(F)cc3)N2CCCCCCO)cc1)N1CCCC1` (configuration not stated), for which the EC50 in the series on Vaccinia virus [27] is 4.6 µM; in the series with Cowpox virus [28], 4.5 µM.

Take `Nc1ccn([C@@H]2C=C(CO)[C@@H](O)[C@H]2O)c(=O)n1`: in the series with Variola virus [4], the concentration giving a half-maximal response (EC50) worked out at 0.03 µM.

On to `NC(=S)N/N=C1\C(=O)Nc2ccccc21`, for which the concentration giving a half-maximal response (EC50) with Vaccinia virus [29] turned out to be 14 µM; with Vaccinia virus [30], 60 µM.
